Measurements: US20140196172A1, “Organelle Targeting Nanocarriers” (Her Majesty the Queen in Right of Canada, as Repre sented …, priority 2011, published 2014)

Tested on: chloroplasts of triticale protoplasts
Experiment: qRT-PCR of gfp mRNA, protoplasts transfected with pWCaadA16GFP
Type: cell-based
Settings: gfp reporter construct
Source text: FIG. 20 is a plot showing the level of expression (fold increase, average of 4 replicates) of GFP in triticale protoplasts transfected with the pWCaadA16GFP plasmid in the presence of cTP1 (SEQ ID NO: 6), cTP2 (SEQ ID NO: 7), cTP3 (SEQ ID NO: 8), cTP4 (SEQ ID NO: 9) or cTP5 (SEQ ID NO: 10) compared to the level of expression (fold increase) of the internal control elongation factor 1a (EF1a), as measured by quantitative real time PCR of mRNA levels.
Wheat chloroplast aadA16GFP reporter plasmid (pWCaadA16GFP, FIG. 12) is a 4212 base pair wheat specific plastid transformation vector, which targets insertions into the tml-tmA inverted repeat regions of the Triticum aestivum plastid genome at nucleotides 92850-93727 and 93794-94671 (GenBank accession No. AB042240.3). A multiple cloning site is introduced following the tml target insertion sequence. The selection marker gene is an organelle codon specific aad-gfp fusion gene, which facilitates a dual selection method of spectinomycin resistance through an aadA derivative and visual detection by GFP fluorescence (GenBank accession No. ABX39486; Khan and Maliga, Nat. Biotechnol. (1999 September) 17(9): 910-5). The selection marker gene is driven by the Triticum aestivum plastid genome promoter (psbA) at nucleotides 1282-1153 (GenBank accession No. AB042240.3). The aad-gfp fusion gene is terminated with the rice psbA terminator sequence derived from chloroplast transformation vector pVSR326 nucleotides 4014-4387 (GenBank accession No. AF527485.1).
The dsDNA construct (pWMaadA16GFP for mitochondrial expression or pWCaadA16GFP for expression in chloroplasts) is combined with the mTP (for mitochondrial expression) or cTP (for expression in chloroplasts) in a final volume of 100 μl of CPW solution. For experiments using mTP1 (SEQ ID NO: 1), mTP2 (SEQ ID NO: 2), mTP3 (SEQ ID NO: 3), or mTP5 (SEQ ID NO: 5), peptides (scaled up from 100 ng, at four times the concentration needed to cause a DNA shift in the gel mobility shift assay (Table 7)) are combined with the pWMaadA16GFP construct (5 μg). For experiments using the remaining oTPs, peptides (30 μg) are combined with the appropriate dsDNA construct (1.5 μg). The mixture is incubated for 10 minutes at room temperature, then incubated with isolated triticale mesophyll protoplasts (500 μl, 10^6 protoplasts/ml, prepared as described in Example 2) for 1 h in the dark at room temperature. CPW solution (500 μl) is added and the mixture is incubated in the dark for 24 h. The cells are imaged using confocal microscopy, as described in Example 2, using MitoTracker® Orange staining to visualize mitochondria and chlorophyll autofluorescence to visualize chloroplasts.
cDNA is generated using a First Strand Synthesis kit (Invitrogen). RNA (1 μg) is added to each sample and the manufacturer's protocol for synthesis followed, with the exception that the volume of the reaction mixture is increased from 20 μl to 30 μl. A negRT sample containing all reagents but no RNA is included in the cDNA synthesis as a negative control.
Standard curves are generated for both elongation factor 1a (EF1a) (internal control) and green fluorescent protein (GFP) (test) genes. The EF1a curve is generated by pooling 6 μl of each cDNA sample (excluding the negRT control), then carrying out a serial dilution of 0.5 for 5 more dilutions. […]
Real time PCR reactions are performed using QuantiTect™ SYBR™ Green PCR Master Mix (Qiagen) in a 20 μl reaction volume. […]

Row | Sequence | GFP expression by chloroplasts confirmed by qRT-PCR
1 | MAALIPAIASLPRAQVEKPHPMPVSTRPGLVS (listed as Triticum aestivum) [cTP4] | GFP is expressed
2 | MGGCVSTPKSCVGAKLR (listed as Arabidopsis thaliana) [cTP1] | GFP is expressed
3 | MQTLTASSSVSSIQRHRPHPAGRRSSSVTFS (listed as Triticum aestivum) [cTP2] | GFP is expressed
4 | MSSPPPLFTSCLPASSPSIRRDSTSGSVTSPLR (listed as Arabidopsis thaliana) [cTP5] | GFP is expressed

Tested on: MDCK (Madin-Darby canine kidney) cells
Experiment: Incubation of MDCK cells with fluorescently labeled peptides, confocal microscopy
Type: cell-based
Settings: fluorescein-labelled peptide, 1 h, MitoTracker Orange
Experimental: MDCK cells are cultured in Dulbecco's Modified Eagle Medium (DMEM) containing 5% (v/v) fetal bovine serum (FBS) and 1% (v/v) penicillin/streptomycin at 37° C. in a humidified atmosphere containing 5% CO2. The cells grown on 10-cm dishes are detached with trypsin and ethylenediaminetetraacetic acid (EDTA) and washed with DMEM/FBS. Cells used for microscopy are prepared by adding 100 000 cells to the apical chamber of 12-mm diameter Transwell™ permeable supports (Costar, Cambridge, Mass.). Cells are cultured in DMEM/FBS for 3-5 days.
MDCK cells cultured in apical chambers of 12-mm diameter Transwell™ permeable supports are incubated with 80 μl fluoresceinated mTPs or cTPs (100 μM) and 320 μl of Dulbecco's Modified Eagle Medium (DMEM) for 1 h in the dark at room temperature, followed by washing with 400 μl of DMEM.
Cells are observed using a confocal microscope (Nikon C1, Nikon Canada Inc. or Olympus FluoView™) to analyse the localization of the fluoresceinated mTPs or cTPs (excitation wavelength 490 nm/emission wavelength 520 nm). Chloroplasts are identified by autofluorescence. The fluorescent dye MitoTracker® Orange CM-H2TMRos (M7511, Invitrogen) is used to stain mitochondria (excitation wavelength 554 nm/emission wavelength 576 nm). Fluorescence emissions are collected in z-confocal planes of […] and analyzed using EZ-C1 Software Version 3.6 (Nikon) or Olympus FluoView™ software version 2.0b (Olympus).

Row | Sequence | Mitochondrial targeting
5 | MAAWMRSLFSPLKKLWIRMH (Zea mays) [mTP2] | non-specific mitochondrial localization
6 | MFSYLPRYPLRAASARALVRATRPSYRSALLRYQ (listed as Triticum aestivum) [mTP1] | Specific mitochondrial targeting
7 | MKLLWRLILSRKW (listed as Arabidopsis thaliana) [mTP3] | Specific mitochondrial targeting
8 | MLFRLRRSVRLRGLLA (listed as Arabidopsis thaliana) [mTP5] | Specific mitochondrial targeting
9 | MWWRRSRTNSLRYT (listed as Arabidopsis thaliana) [mTP4] | non-specific mitochondrial localization
